Results published in US20140093513A1, “METHODS OF LOWERING PROPROTEIN CONVERSATE SUBTILISIN/KEXIN TYPE 9 (PCSK9)” (Catabasis Pharmaceuticals, Inc., priority 2012, published 2014).
One block for each compound: values may come before it.

How the values were obtained:
[1] = system: Zucker fa/fa Rat model of Dyslipidemia; experiment: Plasma triglyceride level in the Zucker fa/fa rat model of dyslipidemia; format: in vivo; conditions: Zucker rats, po qd, I-8 at 10, 30, 100 and 300 mg/kg; niacin/EPA 100/200 mg/kg; day 4 fed blood sample, FIG. 3
Procedure: Male Zucker rats (HsdHlr: Zucker-Lepr̂fa) between 8-10 weeks of age were purchased from Harlan and maintained on Purina Rodent Diet (5001) for the duration of the study. Animals were randomized and assigned to treatment arms based on body weight and plasma triglyceride (TG) levels (n=8). Inclusion criteria for the study include body weight >300 grams and fed TG levels in plasma >800 mg/dL. Dosing will be initiated on day 1 and continue through day 5. Dosing will be daily (qd) by oral gavage (po) for all treatment arms (Compound I-8 was administered orally at 4 different doses, 10, 30, 100 and 300 mg/kg; in addition, a combination of niacin/EPA in a ratio of 100/200 mg/kg was also employed). Body weights will be measured for all rats on days 1 through 5. On day 4, a blood sample (fed) will be collected from each rat, processed for plasma and stored at −80° C. Plasma triglyceride level was determined from commercial kits using standard protocols. […] Because compound I-8 was able to lower fed plasma triglyceride, it is useful to treat dyslipidemia as well as other diseases such as type I hyperlipoproteinemia and type 5 hyperlipoproteinemia.

ApoE*3 Leiden mice = experiment: Plasma lipids and liver weight of ApoE*3 Leiden mice on Western type diet, 16 weeks of treatment; format: in vivo; conditions: I-8 in WTD at 7.5 g/kg
Procedure: The same experimental design used in example 6 was used. Two treatment groups were used (n=15). The control animals were kept on a Western type diet (WTD) consisting of 1% cholesterol, 15% cacao butter, 40.5% sucrose, and 1% corn oil. For the treatment group, compound I-8 was administered in the above WTD at a ratio of 7.5 g/kg. Animals were maintained on the WTD or treatment group for 16 weeks. At the conclusion of the study, plasma cholesterol and triglyceride levels were recorded, as well as the weight of the liver. There was a significant decrease in plasma cholesterol, triglyceride levels as well as liver weight in the treatment group. After 16 weeks of treatment, the cholesterol level of the treatment group was 420 mg/dL, compared with a level of 750 mg/dL for the control group; the triglyceride level was 110 mg/dL, compared with a level of 160 mg/dL for the control group.

PCSK9 = PCSK9 secretion assay in HepG2 cells (PCSK9 ELISA); format: cell-based; conditions: for IC50: 16 hours incubation, at least 6 concentrations
Outline: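 HepG2 cells in serum-free DMEM with compound added in FBS (ethanol-matched) and incubated 16 hours, in triplicate. Secreted PCSK9 in supernatant measured by ELISA (A450), with AlamarBlue viability check. IC50 obtained from at least 6 concentrations.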

ApoE3Leiden mice = experiment: Plasma cholesterol and triglycerides in ApoE3Leiden mice on Western type diet, 2 and 4 weeks of treatment; format: in vivo; conditions: female APOE*3Leiden mice, WTD, I-8 0.75% w/w, atorvastatin 0.0015% w/w in diet
Procedure: The study was conducted using female APOE*3Leiden mice (groups of each n=10) and one untreated reference control group on chow (n=5). To induce dyslipidemia, a high cholesterol Western type diet containing 1% cholesterol, 15% cacao butter, 40.5% sucrose and 1% corn oil (WTD) was fed to the mice for a total experimental period of 20 weeks (of which 4 weeks are a run-in period).
The dyslipidemic mice were grouped on the basis of plasma cholesterol at t=0 assayed in 4 h fasting blood. Mice with low cholesterol after the run-in period were excluded so that homogenous experimental groups were obtained. A group of reference mice (n=5) remained on a chow diet during the complete study period (normolipidemic reference mice).
This mix was then added to the master mix (containing the rest of the ingredients) and mixed thoroughly. The diet was frozen to −20° C. On the subsequent day, the diet was broken into small pellets (approx 5 g per piece) and freeze dried, and stored in vacuum sealed bags (approx 500 g) at −20° C. until use. The diets were refreshed daily and unused diet was discarded.
1) Body weight at −4, 0, 2, 4 weeks 2) Food intake (g/day/mouse) at 0, 2, 4 weeks (per cage) 3) Plasma total cholesterol at −4, 0, 2, 4 weeks (individually) 4) Plasma triglycerides at −4, 0, 2, 4 weeks (individually) 5) Lipoprotein profiles at 0 (pool of all animals) and 4 weeks (cholesterol distribution over VLDL, LDL and HDL-sized particles, analysis on group level).
EDTA plasma was collected in weeks −4, 0, 2 and 4 weeks. Plasma cholesterol, plasma triglyceride levels and lipoprotein profileswere assayed immediately in fresh plasma.

IC50 (PCSK9; HepG2 cells): < 25 µM
SMILES: CC/C=C\C/C=C\C/C=C\C/C=C\C/C=C\CCCC(=O)N1CCC(CNC(=O)C(C)(C)Oc2ccc(C(=O)c3ccc(Cl)cc3)cc2)CC1 [VII-20, 2-(4-(4-chlorobenzoyl)phenoxy)-N-((1-((5Z,8Z,11Z,14Z,17Z)-icosa-5,8,11,14,17-pentaenoyl)piperidin-4-yl)methyl)-2-methylpropanamide]

IC50 (PCSK9; HepG2 cells): < 25 µM
SMILES: CC/C=C\C/C=C\C/C=C\C/C=C\C/C=C\C/C=C\CCC(=O)NCCNC(=O)C(C)(C)Oc1ccc(C(=O)c2ccc(Cl)cc2)cc1 [II-36, (4Z,7Z,10Z,13Z,16Z,19Z)—N-(2-(2-(4-(4-chlorobenzoyl)phenoxy)-2-methylpropanamido)ethyl)docosa-4,7,10,13,16,19-hexaenamide]

IC50 (PCSK9; HepG2 cells): < 25 µM
SMILES: CC/C=C\C/C=C\C/C=C\C/C=C\C/C=C\CCCC(=O)N1CC[C@@H](CNC(=O)C2=CC(=O)C(C)(c3ccccc3)O2)C1 (stereo partly drawn) [VII-6, N—(((S)-1-((5Z,8Z,11Z,14Z,17Z)-icosa-5,8,11,14,17-pentaenoyl)pyrrolidin-3-yl)methyl)-5-methyl-4-oxo-5-phenyl-4,5-dihydrofuran-2-carboxamide]

Second part, the compound before the results:

SMILES: CC/C=C\C/C=C\C/C=C\C/C=C\C/C=C\CCCC(=O)NCCNC(=O)c1cccnc1 [Compound I-8, N-(2-(5Z,8Z,11Z,14Z,17Z)-eicosa-5,8,11,14,17-pentaenamidoethyl)nicotinamide]
fed plasma triglyceride level [1]: dose dependent decrease
liver weight (ApoE*3 Leiden mice; FIG. 7): statistically significant drop
triglyceride level after 16 weeks of treatment (ApoE*3 Leiden mice; control group 160 mg/dL): 110 mg/dL
cholesterol level after 16 weeks of treatment (ApoE*3 Leiden mice; control group 750 mg/dL): 420 mg/dL
PCSK9 levels in HepG2 cells incubated with atorvastatin (PCSK9; HepG2 cells incubated with 10 μM of atorvastatin along with the test article, FIG. 2): decrease PCSK9 levels in a dose response manner
IC50 (PCSK9; HepG2 cells): < 25 µM
lowering of PCSK9 (PCSK9; HepG2 cells, at 25 and 50 μM, FIG. 1): significant lowering of PCSK9
plasma cholesterol at t=2 weeks (ApoE3Leiden mice; 2 weeks of treatment, FIG. 4): statistically significant reduction
plasma cholesterol after 4 weeks of treatment (ApoE3Leiden mice; 4 weeks, FIG. 5): Comparable level of cholesterol reduction
plasma triglyceride levels after 4 weeks of treatment (ApoE3Leiden mice; 4 weeks, FIG. 6): significant reduction

SMILES: CC/C=C\C/C=C\C/C=C\C/C=C\C/C=C\CCCC(=O)N(C)[C@H]1CCN(C(=O)c2cccnc2)C1 [Compound I-49, (5Z,8Z,11Z,14Z,17Z)—N-methyl-N—((S)-1-nicotinoylpyrrolidin-3-yl)icosa-5,8,11,14,17-pentaenamide]
IC50 (PCSK9; HepG2 cells): 25 to 50 µM

SMILES: CC/C=C\C/C=C\C/C=C\C/C=C\C/C=C\CCCC(=O)NCCNC(=O)c1ccccc1NC(=O)c1cccnc1 [Compound I-59, N-(2-((2-((5Z,8Z,11Z,14Z,17Z)-icosa-5,8,11,14,17-pentaenamido)ethyl)carbamoyl)phenyl)nicotinamide]
IC50 (PCSK9; HepG2 cells): > 50 µM
